# Source: patent US20110092592A1, “DIAGNOSIS AND TREATMENT OF HEPATIC DISORDER” (priority 2008, published 2011)
# What was measured:
# NASH = conditions: 2700 mg/day for 12 months; Non-Patent Literature 3; cited from earlier work
# patients with NASH = test: Example 4: EPA-E in NASH patients grouped by adiponectin gene SNP276 genotype, one year; type: in vivo, human; conditions: for NAS scores (Kleiner et al.): 900 mg twice a day, one year
# Experimental: There are three genotypes for the adiponectin gene SNP276, the T/T, G/T and G/G genotypes, and humans with the G/G genotype are said to have a lower blood adiponectin level than those with the T/T genotype.
# To a group of patients with NASH having the adiponectin gene SNP276 which is of the G/G genotype and a group of patients with NASH having the adiponectin gene SNP276 which is of the genotype other than the G/G genotype (each group comprising 15 cases), 900 mg of EPA-E is administered twice a day for one year. After the lapse of one year, therapeutic effects are evaluated by the NAS scoring of Kleiner et al. In both of the group of patients with NASH having the G/G genotype and the group of patients with NASH having the genotype other than the G/G genotype, NAS scores are improved owing to the administration of the drug for one year.
# [1] = test system: patients with NASH having liver fibrosis; test: Example 3: EPA-E with dietary restriction and exercise therapy in NASH patients having liver fibrosis, one year; type: in vivo, human; conditions: one year after start of treatment
# Experimental: Patients with NASH having liver fibrosis, that is to say, subjects suffering from fibrosis classified to stage 1 or 2 according to the fibrosis staging of Brunt et al. are collected (15 cases). Dietary restriction and exercise therapy are conducted so that the blood OA/SA ratio as monthly measured may be reduced in value from that measured previously, while 900 mg of EPA-E is administered twice a day, so as to do follow-up for one year. To the subjects in whom no change is recognized in OA/SA ratio, 900 mg of EPA-E is administered thrice a day.
# The subjects in whom the reduction ratio of the OA/SA ratio in one month after the start of the administration is not lower than 5% are included in group A, while the subjects in whom the reduction ratio of the OA/SA ratio in one month after the start of the administration is lower than […] are included in group B. The reduction rate of the OA/SA ratio in one month is calculated by the equation: reduction rate (%)=[(OA/SA ratio before start of administration)−(OA/SA ratio one month after start of administration)]/OA/SA ratio before start of administration×100.
# [2] = test system: subjects affirmatively diagnosed as having NASH; test: Example 1: EPA-E group vs placebo control group in NASH subjects, one year; type: in vivo, human
# Experimental: Subjects affirmatively diagnosed as having NASH are divided into two groups (each comprising 15 cases), namely the EPA-E group and the control group, then the groups are caused to take EPADEL S900 (containing 900 mg of EPA-E) and a placebo, respectively, twice a day. Doses are modified as appropriate to the subjects' conditions. Following the method described in American Journal of Gastroenterology 2001, Vol. 96, pp. 2711-2717 with respect to the criteria for diagnosing subjects, monitoring, histological testing, statistic analysis, and so forth, blood chemistry tests on ALT, AST, and the like are performed and the plasma fatty acid composition is determined over a dosage period of one year, and liver biopsy is conducted at the end of dosage, so as to make histological evaluations.
# Of the EPA-E group, 15 cases are sorted into two groups, one (“effective” group) comprising the cases in which the score in accordance with the method of Brunt et al. is changed after the administration of the drug from that before the administration by 1 or 2, and the other (“ineffective” group) comprising the cases in which the score after the administration is not changed from that before the administration, and analysis is conducted on the change in the plasma fatty acid composition as determined over the dosage period of one year. The OA/SA ratio before the administration is not different between the effective group and the ineffective group. […] The reduction rate of the OA/SA ratio in two months is calculated by the equation: reduction rate (%)=[(OA/SA ratio before start of administration)−(OA/SA ratio two months after start of administration)]/OA/SA ratio before start of administration×100.
# [3] = EPADEL S900 (900 mg EPA-E) twice a day, one year, vs before treatment and vs control group
# [4] = effective group (Brunt score changed by 1 or 2)
# [5] = ineffective group (Brunt score not changed)
smiles,measurement,setting,value
"CC/C=C\C/C=C\C/C=C\C/C=C\C/C=C\CCCC(=O)OCC [EPA-E, ethyl icosapentate ester]","NASH (AST, ALT, inflammatory cytokines, oxidative stress markers, liver biopsy)",NASH,amelioration of NASH
same,degree of improvement in NAS score,patients with NASH; G/G genotype group vs other genotype group,higher in the group of patients with NASH having the G/G genotype
same,NAS scores (Kleiner et al.),patients with NASH; G/G genotype group,improved
same,NAS scores (Kleiner et al.),patients with NASH; genotype other than G/G,improved
same,"fibrosis, staging of Brunt et al., by liver biopsy",[1]; group A (OA/SA reduction in one month not lower than 5%),"ameliorated from stage 2 to stage 1 or non-fibrotic stage, or again, from stage 1 to non-fibrotic stage"
same,amelioration of fibrosis,[1]; group B (OA/SA reduction in one month lower than 1%),slight
same,mean value of ALT,[2]; [3],reduced from those before treatment more markedly in comparison with the control group
same,mean value of AST,[2]; [3],reduced from those before treatment more markedly in comparison with the control group
same,TIMP-1,[2]; [4],gradually reduced in value
same,hyaluronic acid,[2]; [4],gradually reduced in value
same,type IV collagen,[2]; [4],gradually reduced in value
same,reduction rate of the OA/SA ratio in two months,[2]; effective group compared with ineffective group,high in the effective group as compared with the ineffective group
same,plasma OA/SA ratio,"[2]; for two months after start of administration, effective and ineffective groups",tends to be reduced in both groups
same,plasma OA/SA ratio,"[2]; from the lapse of two months on, effective and ineffective groups",tends more or less to be reduced
same,TIMP-1,[2]; [5],hardly changed in value
same,hyaluronic acid,[2]; [5],hardly changed in value
same,type IV collagen,[2]; [5],hardly changed in value
same,"average fibrosis, fibrosis staging of Brunt et al.",[2]; liver biopsy at the end of one-year dosage,from stage 2 to stage 1
same,plasma OA/SA ratio,"[2]; two months after start of administration, effective group vs ineffective group",lower in value than in the ineffective group
